Laboratory results from the NIST ThermoML archive (doi:10.1021/acs.jced.6b01013).

Experiment: xn = mol fraction of the nth substance listed
Conditions: 100 kPa, Liquid, Pycnometric method

COc1ccccc1O [2-methoxyphenol] + C[N+](C)(C)CCO.[Cl-]
mass density [kg/m3]
Conditions	293.15 K	303.15 K	313.15 K	323.15 K
x1 = 0.75	1153.3	1147.5	1141.2	1134.1
x1 = 0.8	1155.6	1147.7	1140.6	1132.4
x1 = 0.83	1149.7	1143.4	1136.2	1128

CC(=O)OCC[N+](C)(C)C.[Cl-] [acetylcholine chloride] + COc1ccccc1O
mass density [kg/m3]
Conditions	293.15 K	303.15 K	313.15 K	323.15 K
x2 = 0.75	1149.6	1146.1	1139.8	1133.8
x2 = 0.8	1149.3	1144.8	1138.1	1131.7
x2 = 0.83	1152.7	1148.1	1142.5	1135.1

CCNCC.Cl [diethylammonium chloride] + COc1ccccc1O
mass density [kg/m3]
Conditions	293.15 K	303.15 K	313.15 K	323.15 K
x2 = 0.75	1095.4	1093.1	1083.7	1075.8
x2 = 0.8	1102.4	1098.3	1089.8	1084.1
x2 = 0.83	1106.1	1103.5	1093.7	1083.5
